Data taken from patent US20230293526A1, “METHOD FOR TREATING CANCER WITH A REVERSE TRANSCRIPTASE INHIBITOR” (PrimeFour Therapeutics, Inc., priority 2020, published 2023).

Test system: KASUMI
Experiment: Cell proliferation Ex.3
Type: cell-based

Measured: IC50

C#C[C@]1(CO)O[C@@H](n2cc(F)c(N)nc2=O)C[C@@H]1O [compound 9]
> 10 µM: 72 h | 120 h | 168 h
